Earlier results as cited in patent publication US7851464B2, “Spirolactam aryl CGRP receptor antagonists” (Merck Sharp & Dohme Corp., priority 2005, dated 2010).
Ends that are not written are not given here.

Tests used:
marmoset = settings: Doods et al. 2000
rats = settings: prior administration, Williamson et al. 1997
rat = settings: Escott et al. 1995

Compound	effect on increase of facial blood flow (marmoset)	effect on increase of middle meningeal artery diameter (rats)	effect on increase of facial blood flow (rat)
NCCCC[C@H](NC(=O)[C@@H](Cc1cc(Br)c(O)c(Br)c1)NC(=O)N1CCC(N2Cc3ccccc3NC2=O)CC1)C(=O)N1CCN(c2ccncc2)CC1 [BIBN4096BS]	blocked		
CGRP(8-37): a peptide CGRP antagonist; fragment of CGRP that lacks seven N-terminal amino acid residues (VTHRLAGLLSRSGGVVKNNFVPTNVGSKAF; ends and bridges not checked; UniProt P06881 90-119, looked up, fragment)		blocked	inhibited
